Source: ChEMBL document CHEMBL1144001, “Synthesis and GABA(A) receptor activity of oxygen-bridged neurosteroid analogs” (Bioorg Med Chem, 2008)

Experiment: Displacement of [3H]TBOB from GABAA receptor in Sprague-Dawley rat cerebral cortex
Type: tissue-based

Compound: CC(=O)[C@H]1CC[C@H]2[C@@H]3CC[C@@H]4C[C@H](O)C[C@@H]5O[C@H](C[C@]12C)[C@@H]3[C@]45C
- IC50: 420 nM

Compound: CC(=O)[C@H]1CC[C@H]2[C@@H]3CCC4=C[C@H](O)CC[C@@]45CO[C@@H](C[C@]12C)[C@@H]35
- IC50: 518 nM

Compound: CC(=O)[C@H]1CC[C@H]2[C@@H]3CC[C@H]4C[C@H](O)C[C@H]5O[C@H](C[C@]12C)[C@@H]3[C@]45C
- IC50: 741 nM

Compound: CC(=O)[C@H]1CC[C@H]2[C@@H]3CC[C@H]4C[C@H](O)CC[C@]4(C)[C@H]3CC[C@]12C [BREXANOLONE]
- IC50: 329 nM

Compound: CC(=O)[C@H]1CC[C@H]2[C@@H]3CC[C@@H]4C[C@H](O)CC[C@]4(C)[C@H]3CC[C@]12C [ELTANOLONE]
- IC50: 830 nM
